Measurements published in patent US20250134953A1, “COMPOSITIONS FOR TREATING AUTOIMMUNE ARTHRITIS” (DEVINTEC SAGL, priority 2021, published 2025).

Assays:
[1] = system: IL-17, IL-6, IL-23, TNF-α and IL-1β; settings: CAIA mice; prednisolone at high doses (group 14); combination groups 13 and 15; FIGS. 1-2
Method: The mAb cocktail contained three mAb (F10, A2, D8) of type IgG2a and one mAb (D1) of type IgG2b in equal amounts, directed to bovine CII (Arthrogen-CIA, Chondrex) suspended in sterile PBS. All WT mice received intraperitnoeal i.p. injections of 8 mg/mouse of Arthrogen on day 0 and 50 ug/mouse of LPS from E. coli strain 0111B4 (Sigma, T 3382) on day 3 to synchronize the development of arthritis. All mice started to develop arthritis at day 4 and were sacrificed at day 14.
Animals from group A and B were separated in some the following subgroups, depending on the assay, and administered with the indicated compounds or combination of compounds: • 1. Sham+vehicle (negative control) (n=3) • 2. Sham+prednisolone 0.05 mg/kg (n=3) • 3. Sham+prednisolone 0.05 mg/kg +MD (50 mg acacia gum (AG) +70 mg pea protein (PP)+50 mg alpha-GOS) (n=3) • 4. Sham+prednisolone 0.2 mg/kg (n=3) • 5. Sham+prednisolone 0.2 mg/kg+MD (50 mg AG+70 mg PP+50 mg alpha-GOS) (n=3) • 6. Sham+prednisolone 1 mg/kg (n=3) • 7. Sham+prednisolone 1 mg/kg+MD (50 mg AG+70 mg PP+50 mg alpha-GOS) (n=3) • 8. Sham+MD (n=3) • 9. CAIA+vehicle (positive control) (n=6) • 10. CAIA+prednisolone 0.05 mg/kg (n=6) • 11. CAIA+prednisolone 0.05 mg/kg+MD (50 mg AG+70 mg PP+50 mg alpha-GOS) (n=6) • 12. CAIA+prednisolone 0.2 mg/kg (n=6) • 13. CAIA+prednisolone 0.2 mg/kg (n=6)+MD (50 mg AG+70 mg PP+50 mg alpha-GOS) (n=6) • 14. […]

[2] = system: collagen antibody-induced arthritis (CAIA) mice; experiment: Histological score of ankle joints (hind legs) in CAIA mice; assay type: in vivo, Male BALB/c mice; settings: oral gavage
Method: (§1) Each compound (140 mg of pea protein; 100 mg of Acacia gum; and 100 mg of alpha-Glucooligosaccharide) were administered in a PBS solution via oral gavage daily, from day 0 to day 14 in mice of Group A, and from day 4 to day 14 in mice of Group B. Prednisolone was administered via oral gavage at the doses of 0.05, 0.2 and 1 mg/kg as disclosed in Oosten, L., Helsen, M., Saxne, T. et al. “Synergistic protection against cartilage destruction by low dose prednisolone and interleukin-10 in established murine collagen arthritis”. Inflamm. Res. 48, 48-55, 1999.
(§2) The animals were divided into the following two groups: • Group A: the animals were administered with the therapeutic compounds from day 0 to day 14. • Group B: the animals were administered with the therapeutic compounds from day 4 to day 14.
(§3) Sham+vehicle (negative control) (n=3) • 2. Sham+prednisolone 0.05 mg/kg (n=3) • 3. […] Sham+prednisolone 0.2 mg/kg (n=3) • 5. […] Sham+prednisolone 1 mg/kg (n=3) • 7. […] Sham+MD (n=3) • 9. CAIA+vehicle (positive control) (n=6) • 10. CAIA+prednisolone 0.05 mg/kg (n=6) • 11. […] CAIA+prednisolone 0.2 mg/kg (n=6) • 13. […] CAIA+prednisolone 1 mg/kg (n=6) • 15. […] CAIA+140 mg Pea Protein (n=6) • 18. […] CAIA+200 mg Pea Protein (n=6) • 20. […] CAIA+70 mg Pea Protein (n=6)
Histological analysis was carried out as previously described (Balkrishna A, et al., supra; Mengdi et al., “A novel dexamethasone-loaded liposome alleviates rheumatoid arthritis in rats”; International Journal of Pharmaceutics; 2018; vol. 540(1-2); pp. 57-64) and indicating score analysis of the RA disease-associated lesions such as the moderately enlarged synovial membrane, hyperplastic synovium, the presence of inflammation and bone and cartilage erosion on a 0-4 scale as follows: 0=normal; 1=mild, slight swelling; 2=moderate swelling; 3=severe swelling; 4=maximally inflamed; […].
Histopathological analysis of the CAIA mice hind legs was performed following fourteen days of treatment. Ankle-joints analysis of the CAIA mice was performed indicating the development of arthritis disease-associated lesions such as the moderately enlarged synovial membrane, hyperplastic synovium, increased synovial vascularity, the presence of inflammation and, bone and cartilage erosion.

[3] = system: collagen antibody-induced arthritis (CAIA) mice; experiment: Radiological score (X-ray) of ankle joints in CAIA mice; assay type: in vivo, Male BALB/c mice; settings: oral gavage, score 0-3
Method: as §1, §2, §3
Radiological analysis was carried out using X-ray technique, and radio-logical scoring (level: 0=Normal; 1=Slight; 2=Moderate and 3=Severe) was calculated considering different parameters such as periosteal reaction/hypertrophy, bone erosion, soft tissue swelling, narrowed joint space and osteoporosis in the ankle-joints, as described in Balkrishna A, et al., “Herbo-mineral formulation ‘Ashwashila’ attenuates rheumatoid arthritis symptoms in collagen-antibody-induced arthritis (CAIA) mice model” Sci Rep., 2019; vol. 9(1); pp. 8025.

[4] = group A (dosed day 0 to day 14), subgroup 10A: prednisolone 0.05 mg/kg
[5] = group A (dosed day 0 to day 14), subgroup 12A: prednisolone 0.2 mg/kg
[6] = group A (dosed day 0 to day 14), subgroup 14A: prednisolone 1 mg/kg
[7] = group B (dosed day 4 to day 14), subgroup 10B: prednisolone 0.05 mg/kg
[8] = group B (dosed day 4 to day 14), subgroup 12B: prednisolone 0.2 mg/kg
[9] = group B (dosed day 4 to day 14), subgroup 14B: prednisolone 1 mg/kg

C[C@]12C=CC(=O)C=C1CC[C@@H]1[C@@H]2[C@@H](O)C[C@@]2(C)[C@H]1CC[C@]2(O)C(=O)CO [prednisolone]
cytokine levels (IL-17, IL-6, IL-23, TNF-α and IL-1β) in arthritic hind paws [1]: significantly reduced the expressions of the aforementioned cytokines
Histological score, MEAN [2, 4]: 1.8
Histological score, MEAN [2, 5]: 1.3
Histological score, MEAN [2, 6]: 1.1
Histological score, MEAN [2, 7]: 2.4
Histological score, MEAN [2, 8]: 1.8
Histological score, MEAN [2, 9]: 1.9
Radiological score, MEAN [3, 4]: 2.3
Radiological score, MEAN [3, 5]: 1.8
Radiological score, MEAN [3, 6]: 1.7
Radiological score, MEAN [3, 7]: 2.6
Radiological score, MEAN [3, 8]: 1.9
Radiological score, MEAN [3, 9]: 1.8
